According to PMC12469672, “Effects on Oral Squamous Carcinoma Cell Lines and Their Mechanisms of Pyrazole N-Aryl Sulfonate: A Novel Class of Selective Cyclooxygenase-2 Inhibitors” (International Journal of Molecular Sciences, 2025):
Entries after “also recorded” stand apart in the source; their conditions may differ. Where two headings read alike, the source gives them in different places.

Key:
CAL-27 cells [1] = test: Annexin V-FITC/PI flow cytometry apoptosis, CAL-27; format: cell-based; conditions: CAL-27, 24 h, vs control
Experimental: After 24 h drug treatment at the predefined working concentrations, CAL-27 and SAS cells were trypsinized, centrifuged (200× g, 5 min, RT), and washed twice with 1 mL ice-cold PBS. Cell aliquots ((5–10) × 10^4 cells) were resuspended in 195 μL Annexin V-FITC binding buffer, followed by sequential addition of 5 μL Annexin V-FITC and 10 μL propidium iodide (PI) (BMS500FI-100, Thermo Fisher Scientific, Wien, Austria) with gentle mixing. After 10–20 min of incubation in darkness (20–25 °C) with intermittent resuspension (2–3 times), samples were placed on ice and analyzed within 1 h using a flow cytometer (CytExpert software [Version 2.4.0.28, Beckman Coulter, Brea, CA, USA]). Triplicate independent experiments were performed for statistical analysis.

HepG2 = conditions: previous experiments, preliminary screening; cited from earlier work
[2] = system: MMP9 mRNA in CAL-27 cells; test: RT-qPCR MMP9 mRNA, CAL-27; format: cell-based; conditions: CAL-27, 24 h, vs control
Experimental: Equal amounts of RNA were reverse transcribed into cDNA using the Reverse Transcription Kit (AG11705, Accurate Biology, Guangzhou, China) following the manufacturer’s instructions. Quantitative PCR was performed on a QIAGEN Rotor-GeneQ system (9001862, QIAGEN, Hilden, Germany) with SYBR Green Pro Taq HS Premix II (AG11702, Accurate Biology, China).
The PCR protocol consisted of initial denaturation at 95 °C for 30 s, followed by 40 cycles of 95 °C for 5 s and 60 °C for 30 s. All reactions were performed in triplicate, with melting curve analysis confirming amplification specificity. The expression of the target genes was normalized to GAPDH, and fold changes were calculated in the manner of the 2^−ΔΔCT .

SAS cells [3] = test: Transwell migration assay, SAS; format: cell-based; conditions: 24 h treatment at working concentrations, vs control
Experimental: Following 24 h drug treatment at the predefined working concentrations, CAL-27 and SAS cells (5 × 10^5 cells/mL in serum-free medium) were seeded in Transwell upper chambers (200 μL/well, 1 × 10^5 cells) with 700 μL complete medium containing 10% FBS in lower chambers. After 36 h of incubation (37 °C, 5% CO2), the cells from the upper surface of the membrane were wiped off using a cotton swab, whereupon migrated cells were fixed (4% paraformaldehyde [P0099-100 mL, Beyotime, Haimen, China], 4 °C, 4 h), stained (0.1% crystal violet [C0121-100 mL, Beyotime, China], 30 min), and quantified by counting five random fields under a microscope (CX23, Olympus, Tokyo, Japan) using ImageJ (v1.8.0.322), with triplicate wells per condition.

SAS cells [4] = test: CCK-8 proliferation assay, SAS; format: cell-based; conditions: for IC50: SAS; for Selectivity Index SAS: SI = IC50,VERO/IC50,SAS
Experimental: (§1) The OSCC cell lines CAL-27 (STCC12901P, Servicebio, Wuhan, China) and SAS (CC0706, Cellcook, Guangzhou, China) were cultured in Dulbecco Modified Eagle Medium F12 (DMEM/F12) (G4610-500ML, Servicebio, Wuhan, China) supplemented with 10% fetal bovine serum (FBS) (AB-FBS-DIA1050, ABW, Shanghai, China) and 100 U/mL penicillin-streptomycin-gentamicin solution (G4014-100ML, Servicebio, Wuhan, China). VERO cells were cultured in DMEM (G4524-500ML, Servicebio, Wuhan, China) supplemented with 10% FBS (AB-FBS-DIA1050, ABW, China) and 100 U/mL penicillin–streptomycin–gentamicin solution (G4014-100ML, Servicebio, Wuhan, China). […] were maintained at 37 °C in a humidified 5% CO2 incubator. For experiments, 1 × 10^6 cells were seeded per T-25 culture flask.
(§2) CAL-27, SAS, and VERO cells were seeded in 96-well plates at a density of 5000 cells per well. At specified time intervals, 10 μL of Cell Counting Kit-8 (CCK-8) reagent (K1018, Apexbio, Boston, MA, USA) was added to each well and incubated for 2 h. Absorbance at 450 nm was measured using a microplate reader (Infinite M200 Pro, Tecan Group, Männedorf, Switzerland).

CAL-27 cells [5] = test: Hoechst 33342 staining, CAL-27; format: cell-based; conditions: CAL-27, 24 h, working concentrations, vs NC
Experimental: After 24 h drug treatment at the predefined working concentrations, CAL-27 and SAS cells were dyed with 300 μL Hoechst 33342 staining (C1022, Beyotime, China) in the dark at 37 °C for 10 min. Then, the residual Hoechst 33342 staining was washed 3 times with 1 × phosphate-buffered saline (PBS, G4250-500ML, Servicebio, China). The images were then immediately examined under an inverted fluorescence microscope (CX23, Olympus, Japan).

VERO cells = test: CCK-8 cytotoxicity assay, VERO; format: cell-based, African green monkey; conditions: for IC50: Chlorocebus sabaeus, VERO, CCK-8, 24 h; for proliferation rate of VERO cells / cytotoxicity in VERO cells: working concentrations; for proliferation rate of VERO cells: 24 h, vs control; for cytotoxicity in VERO cells: vs CXB
Experimental: as §1, §2

[6] = CCK-8, 24 h, given as a range, read-out: IC50 (range)

| Structure (SMILES) | total apoptotic cell population (early and late apoptosis) (CAL-27 cells [1]) | antiproliferative effect on HepG2 (HepG2) | apoptosis of HepG2 (HepG2) | migration of HepG2 (HepG2) | MMP9 mRNA expression [2] | migratory capacity (Transwell) (SAS cells [3]) | IC50 (SAS cells [4]; [6]) [µM] | IC50 (SAS cells [4]; CCK-8, read-out: IC50 SAS) [µM] | Selectivity Index SAS (SAS cells [4]) | apoptotic cells (Hoechst 33342, fluorescence microscopy) (CAL-27 cells [5]) | IC50 (VERO cells) [µM] | proliferation rate of VERO cells (VERO cells) | cytotoxicity in VERO cells (VERO cells) |
| --- | --- | --- | --- | --- | --- | --- | --- | --- | --- | --- | --- | --- | --- |
| Cc1ccc(-c2cc(C)n(S(=O)(=O)Oc3ccc(I)cc3)n2)cc1 [Compound 4b] | significantly higher; also recorded: strongest pro-apoptotic effect | concentration-dependent antiproliferative effects | induction of apoptosis | suppression of migration | significantly downregulated | significantly reduced | 26 to 34.6 | 30.2 | 3.40 | significant increase | 102 | remained largely unchanged | lower cytotoxicity than CXB |
| Cc1ccc(-c2cc(C)n(S(=O)(=O)Oc3ccccc3Cl)n2)cc1 [Compound 4d] | significantly higher | concentration-dependent antiproliferative effects | induction of apoptosis | suppression of migration | significantly downregulated | significantly reduced | 7.46 to 24.3 | 16.7 | >6.00 | significant increase | > 100 | remained largely unchanged | lower cytotoxicity than CXB |
| Cc1cc(-c2ccco2)nn1S(=O)(=O)Oc1ccccc1Cl [Compound 5f] | significantly higher | concentration-dependent antiproliferative effects | induction of apoptosis | suppression of migration | significantly downregulated | significantly reduced | 59.4 to 69.5 | 64.2 | 3.50 | significant increase | 225 | moderate inhibitory effect | lower cytotoxicity than CXB |
